Source: patent US20230127944A1, “BROAD-SPECTRUM CARBAPENEMS” (priority 2019, published 2023)
Values after ≈ are worked out from the molar mass of the structure shown.

How the values were obtained:
Assay type in all cases: cell-based
[1] = tested on: P. aeruginosa ΔmexAB-OprM (an efflux pump knockout); assay: broth microdilution MIC assay, P. aeruginosa ΔmexAB-OprM; conditions: Pseudomonas aeruginosa, read-out: MIC, P. aeruginosa ΔmexAB-OprM
How it was run: (§1)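 CLSI broth microdilution in cation-adjusted Mueller-Hinton broth: colonies from Mueller Hinton II agar grown 3-5 h at 37° C, inoculum set by OD600 to 5×10^5 CFU/mL final. Compounds in 2-fold serial dilutions; plates incubated 16-20 hours at 37° C. MIC read visually as lowest concentration without growth.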

S. aureus USA 600 = assay: broth microdilution MIC assay, S. aureus USA600; conditions: Staphylococcus aureus; S. aureus USA600 (MRSA); read-out: MIC, S. aureus USA600
How it was run: as §1

S. aureus USA 300 = assay: broth microdilution MIC assay, S. aureus USA300; conditions: Staphylococcus aureus; S. aureus USA300 (MRSA); read-out: MIC, S. aureus USA300
How it was run: as §1

[2] = tested on: E. coli ATCC 25922 (wild-type/QC strain); assay: broth microdilution MIC assay, E. coli 25922; conditions: Escherichia coli, ATCC25922; read-out: MIC, E. coli 25922
How it was run: as §1

P. aeruginosa Paeβ-17 = assay: broth microdilution MIC assay, P. aeruginosa Paeβ-17; conditions: Pseudomonas aeruginosa, read-out: MIC, P. aeruginosa Paeβ-17
How it was run: as §1

[3] = tested on: S. aureus ATCC 33591 (methicillin-resistant); assay: broth microdilution MIC assay, S. aureus 33591; conditions: Staphylococcus aureus, ATCC33591; S. aureus 33591, methicillin-resistant; read-out: MIC, S. aureus 33591
How it was run: as §1

[4] = tested on: P. aeruginosa ATCC 27853 (wild-type/QC strain); assay: broth microdilution MIC assay, P. aeruginosa 27853; conditions: Pseudomonas aeruginosa, ATCC27853; read-out: MIC, P. aeruginosa 27853
How it was run: as §1

[5] = tested on: P. aeruginosa 35151 (hyper-permeable strain); assay: broth microdilution MIC assay, P. aeruginosa 35151; conditions: Pseudomonas aeruginosa, read-out: MIC, P. aeruginosa 35151
How it was run: as §1

Row | SMILES | MIC [1] [µg/mL] | MIC (S. aureus USA 600) [µg/mL] | MIC (S. aureus USA 300) [µg/mL] | MIC [2] [µg/mL] | MIC (P. aeruginosa Paeβ-17) [µg/mL] | MIC [3] [µg/mL] | MIC [4] [µg/mL] | MIC [5] [µg/mL]
1 | C[C@@H](O)[C@H]1C(=O)N2C(C(=O)O)=C(S[C@H]3C[C@@H](N[C@H]4CC[C@@H](N)CC4)C3)[C@H](C)[C@H]12 [Example 62, (4R,5S,6S)-3-(((1S,3S)-3-(((1S,4R)-4-aminocyclohexyl)amino)cyclobutyl)thio)-6-((R)-1-hydroxyethyl)-4-methyl-7-oxo-1-azabicyclo[3.2.0]hept-2-ene-2-carboxylic acid] | 1 to 4 (≈ 2.44 to 9.77 µM) | 1 to 4 (≈ 2.44 to 9.77 µM) | 1 to 4 (≈ 2.44 to 9.77 µM) | < 1 | 8 to 32 (≈ 19.5 to 78.1 µM) | 1 to 4 (≈ 2.44 to 9.77 µM) | 1 to 4 (≈ 2.44 to 9.77 µM) | < 1
2 | C[C@@H](O)[C@H]1C(=O)N2C(C(=O)O)=C(S[C@@H]3CCN([C@H]4CC[C@@H](CNC(=N)N)CC4)C3)[C@H](C)[C@H]12 [Example 63, (4R,5S,6S)-3-(((R)-1-((1S,4S)-4-(guanidinomethyl)cyclohexyl)pyrrolidin-3-yl)thio)-6-((R)-1-hydroxyethyl)-4-methyl-7-oxo-1-azabicyclo[3.2.0]hept-2-ene-2-carboxylic acid] | 1 to 4 (≈ 2.15 to 8.59 µM) | 1 to 4 (≈ 2.15 to 8.59 µM) | 1 to 4 (≈ 2.15 to 8.59 µM) | < 1 | 8 to 32 (≈ 17.2 to 68.7 µM) | 1 to 4 (≈ 2.15 to 8.59 µM) | 1 to 4 (≈ 2.15 to 8.59 µM) | < 1
3 | C[C@@H](O)[C@H]1C(=O)N2C(C(=O)O)=C(S[C@@H]3CCN([C@H]4CC[C@H](CNC(=N)N)CC4)C3)[C@H](C)[C@H]12 [Example 64, (4R,5S,6S)-3-(((R)-1-((1R,4R)-4-(guanidinomethyl)cyclohexyl)pyrrolidin-3-yl)thio)-6-((R)-1-hydroxyethyl)-4-methyl-7-oxo-1-azabicyclo[3.2.0]hept-2-ene-2-carboxylic acid] | 1 to 4 (≈ 2.15 to 8.59 µM) | 1 to 4 (≈ 2.15 to 8.59 µM) | 1 to 4 (≈ 2.15 to 8.59 µM) | < 1 | 8 to 32 (≈ 17.2 to 68.7 µM) | 1 to 4 (≈ 2.15 to 8.59 µM) | 1 to 4 (≈ 2.15 to 8.59 µM) | < 1
4 | C[C@@H](O)[C@H]1C(=O)N2C(C(=O)O)=C(SC3CN([C@H]4CC[C@@H](CNC(=N)N)CC4)C3)[C@H](C)[C@H]12 [Example 65, (4R,5S,6S)-3-((1-((1S,4S)-4-(guanidinomethyl)cyclohexyl)azetidin-3-yl)thio)-6-((R)-1-hydroxyethyl)-4-methyl-7-oxo-1-azabicyclo[3.2.0]hept-2-ene-2-carboxylic acid] | 1 to 4 (≈ 2.21 to 8.86 µM) | 1 to 4 (≈ 2.21 to 8.86 µM) | 1 to 4 (≈ 2.21 to 8.86 µM) | < 1 | 8 to 32 (≈ 17.7 to 70.9 µM) | 1 to 4 (≈ 2.21 to 8.86 µM) | 1 to 4 (≈ 2.21 to 8.86 µM) | < 1
5 | C[C@@H](O)[C@H]1C(=O)N2C(C(=O)O)=C(SC3CN([C@H]4CC[C@H](CNC(=N)N)CC4)C3)[C@H](C)[C@H]12 [Example 66, (4R,5S,6S)-3-((1-((1R,4R)-4-(guanidinomethyl)cyclohexyl)azetidin-3-yl)thio)-6-((R)-1-hydroxyethyl)-4-methyl-7-oxo-1-azabicyclo[3.2.0]hept-2-ene-2-carboxylic acid] | 1 to 4 (≈ 2.21 to 8.86 µM) | 1 to 4 (≈ 2.21 to 8.86 µM) | 1 to 4 (≈ 2.21 to 8.86 µM) | < 1 | 8 to 32 (≈ 17.7 to 70.9 µM) | 1 to 4 (≈ 2.21 to 8.86 µM) | 1 to 4 (≈ 2.21 to 8.86 µM) | < 1
6 | C[C@@H](O)[C@H]1C(=O)N2C(C(=O)O)=C(S[C@H]3C[C@H](N[C@H]4CC[C@H](N)C4)C3)[C@H](C)[C@H]12 [Example 67, (4R,5S,6S)-3-(((1S,3R)-3-(((1S,3S)-3-aminocyclopentyl)amino)cyclobutyl)thio)-6-((R)-1-hydroxyethyl)-4-methyl-7-oxo-1-azabicyclo[3.2.0]hept-2-ene-2-carboxylic acid] | 1 to 4 (≈ 2.53 to 10.1 µM) | 1 to 4 (≈ 2.53 to 10.1 µM) | 8 to 32 (≈ 20.2 to 80.9 µM) | < 1 | 8 to 32 (≈ 20.2 to 80.9 µM) | 8 to 32 (≈ 20.2 to 80.9 µM) | 8 to 32 (≈ 20.2 to 80.9 µM) | < 1
7 | C[C@@H](O)[C@H]1C(=O)N2C(C(=O)O)=C(S[C@H]3C[C@H](N[C@H]4CC[C@H](NC(=N)N)CC4)C3)[C@H](C)[C@H]12 [Example 68, (4R,5S,6S)-3-(((1R,3R)-3-(((1R,4R)-4-guanidinocyclohexyl)amino)cyclobutyl)thio)-6-((R)-1-hydroxyethyl)-4-methyl-7-oxo-1-azabicyclo[3.2.0]hept-2-ene-2-carboxylic acid] | 1 to 4 (≈ 2.21 to 8.86 µM) | 1 to 4 (≈ 2.21 to 8.86 µM) | 1 to 4 (≈ 2.21 to 8.86 µM) | < 1 | 8 to 32 (≈ 17.7 to 70.9 µM) | 8 to 32 (≈ 17.7 to 70.9 µM) | 8 to 32 (≈ 17.7 to 70.9 µM) | < 1
8 | C[C@@H](O)[C@H]1C(=O)N2C(C(=O)O)=C(S[C@H]3C[C@H](N[C@H]4CC[C@@H](NC(=N)N)CC4)C3)[C@H](C)[C@H]12 [Example 69, (4R,5S,6S)-3-(((1R,3R)-3-(((1S,4S)-4-guanidinocyclohexyl)amino)cyclobutyl)thio)-6-((R)-1-hydroxyethyl)-4-methyl-7-oxo-1-azabicyclo[3.2.0]hept-2-ene-2-carboxylic acid] | 1 to 4 (≈ 2.21 to 8.86 µM) | 1 to 4 (≈ 2.21 to 8.86 µM) | 1 to 4 (≈ 2.21 to 8.86 µM) | < 1 | 8 to 32 (≈ 17.7 to 70.9 µM) | 8 to 32 (≈ 17.7 to 70.9 µM) | 8 to 32 (≈ 17.7 to 70.9 µM) | < 1
9 | C[C@@H](O)[C@H]1C(=O)N2C(C(=O)O)=C(S[C@H]3C[C@H](N[C@@H]4CC[C@H](N)C4)C3)[C@H](C)[C@H]12 [Example 70, (4R,5S,6S)-3-(((1R,3R)-3-(((1R,3S)-3-aminocyclopentyl)amino)cyclobutyl)thio)-6-((R)-1-hydroxyethyl)-4-methyl-7-oxo-1-azabicyclo[3.2.0]hept-2-ene-2-carboxylic acid] | 1 to 4 (≈ 2.53 to 10.1 µM) | 1 to 4 (≈ 2.53 to 10.1 µM) | 8 to 32 (≈ 20.2 to 80.9 µM) | < 1 | 8 to 32 (≈ 20.2 to 80.9 µM) | 8 to 32 (≈ 20.2 to 80.9 µM) | 8 to 32 (≈ 20.2 to 80.9 µM) | < 1
10 | C[C@@H](O)[C@H]1C(=O)N2C(C(=O)O)=C(S[C@H]3C[C@H](N[C@@H]4CC[C@@H](N)C4)C3)[C@H](C)[C@H]12 [Example 71, (4R,5S,6S)-3-(((1R,3R)-3-(((1R,3R)-3-aminocyclopentyl)amino)cyclobutyl)thio)-6-((R)-1-hydroxyethyl)-4-methyl-7-oxo-1-azabicyclo[3.2.0]hept-2-ene-2-carboxylic acid] | 1 to 4 (≈ 2.53 to 10.1 µM) | 1 to 4 (≈ 2.53 to 10.1 µM) | 1 to 4 (≈ 2.53 to 10.1 µM) | < 1 | 8 to 32 (≈ 20.2 to 80.9 µM) | 8 to 32 (≈ 20.2 to 80.9 µM) | 8 to 32 (≈ 20.2 to 80.9 µM) | < 1
11 | C[C@@H](O)[C@H]1C(=O)N2C(C(=O)O)=C(S[C@@H]3CCN(C[C@H]4CC[C@@H](N)CC4)C3)[C@H](C)[C@H]12 [Example 72, (4R,5S,6S)-3-(((R)-1-(((1S,4S)-4-aminocyclohexyl)methyl)pyrrolidin-3-yl)thio)-6-((R)-1-hydroxyethyl)-4-methyl-7-oxo-1-azabicyclo[3.2.0]hept-2-ene-2-carboxylic acid] | 8 to 32 (≈ 18.9 to 75.5 µM) | 1 to 4 (≈ 2.36 to 9.44 µM) | 1 to 4 (≈ 2.36 to 9.44 µM) | < 1 | 1 to 4 (≈ 2.36 to 9.44 µM) | 8 to 32 (≈ 18.9 to 75.5 µM) | 1 to 4 (≈ 2.36 to 9.44 µM) | < 1
12 | C[C@@H](O)[C@H]1C(=O)N2C(C(=O)O)=C(S[C@H]3C[C@H](N[C@H]4CC[C@H](NC(=N)N)C4)C3)[C@H](C)[C@H]12 [Example 73, (4R,5S,6S)-3-(((1S,3R)-3-(((1S,3S)-3-guanidinocyclopentyl)amino)cyclobutyl)thio)-6-((R)-1-hydroxyethyl)-4-methyl-7-oxo-1-azabicyclo[3.2.0]hept-2-ene-2-carboxylic acid] | 8 to 32 (≈ 18.3 to 73.1 µM) | 1 to 4 (≈ 2.29 to 9.14 µM) | 1 to 4 (≈ 2.29 to 9.14 µM) | < 1 | 1 to 4 (≈ 2.29 to 9.14 µM) | 8 to 32 (≈ 18.3 to 73.1 µM) | 1 to 4 (≈ 2.29 to 9.14 µM) | < 1
